Measured values taken from patent publication US6599499B1, “Uses of diterpenoid triepoxides as an anti-proliferative agent” (priority 1999, dated 2003).

Columns and labels:
HT1080 cells = assay: Apoptosis by Annexin V and Propidium Iodide staining, HT1080 cells; assay type: cell-based, human; parameters: unit of the concentration uncertain; conditions: HT1080, 20 h, PG490 pretreatment 4 h then CPT-11 16 h
Protocol: HT1080 cells were treated as shown and harvested for analysis of apoptosis by Annexin V and Propidium Iodide staining 20 h after treatment. In experiments with a combination of PG490 and CPT-11, cells were pretreated with PG490 for 4 h followed by the addition of CPT-11 for 16 h.

HT1080 tumor cells = assay: Nude mouse xenograft, established HT1080 tumors; assay type: in vivo, nude mice; conditions: PG490-88 0.75 mg/kg IP days 0-5 and 7-11, CPT-11 11 mg/kg IV days 1, 5, 9
Protocol: Mice. […] Nude mouse xenograft model. HT1080 tumor cells were grown in tissue culture flasks and harvested using EDTA and trypsin. Cells were centrifuged and the concentration of viable cells was appropriately adjusted. […] Tumor size was monitored after tumor cell implantation by measuring the width, length and thickness of the tumors and using a formula to calculate the volume. […] Control mice were left untreated. […] Combination therapy mice received both PG490-88 and CPT-11 treatments.

[1] = tested on: HT-29 human colon cancer cell line tumors; assay: Nude mouse xenograft, established HT-29 colon cancer tumors; assay type: in vivo, nude mice
Protocol: HT-29 tumor cells grown in tissue culture were harvested and implanted intradermally on the backs of nude mice. Tumor size was monitored by measuring the dimensions of each tumor and calculating tumor volume with a formula. […] PG490-88 treatment at 0.25 mg/kg was administered daily i.p. 5 days per week for 2 weeks. Navelbine at 10 mg/kg was given i.v. on days 0 and 7. Mice in the combination treatment group received PG490-88 i.p. and Navelbine i.v. at the appropriate times. The treatments were given to mice at 100 μl per 10 g of mouse body weight. Tumor dimensions were measured periodically for calculation of tumor volumes. […] The data are presented as mean percent change in tumor volume from day 0 for each treatment group. Toxicity of the treatment was monitored by weighing the mice daily 5 days per week. In FIG. 8, a comparison is provided for tumor volumes on Days 0 and 14. Tumor dimensions were measured periodically for calculation of tumor volumes, and the final determinations were made on day 14.

Dx5 cells = conditions: cited from earlier work
H23 human tumor cells = conditions: day 14; PG490-88 0.25 mg/kg/day; taxol 10 mg/kg/day; IP
Protocol: Cell death reagents and assays. Cell viability was measured by an MTT assay as recently described (Lee et al. (1999) J. Biol. Chem. 274:13451-13455. z-VAD-fluoromethylketone (z-VAD.fmk) was obtained from Alexis Biochemicals, San Diego, Calif. The effect of z-VAD.fmk on cell viability was analyzed by annexin and propidium iodide staining followed by FACS analysis according to the manufacturer's protocol (Clontech Laboratories, Palo Alto, Calif.). The analysis of apoptosis in histologic sections was done by terminal deoxynucleotidyl transferase (TdT)-mediated d-UTP nick end labeling (TUNEL) of slides from paraffin sections of day 3 tumors harvested from the mice 24 h after the second of two daily treatments with PG490-88 or saline. TUNEL staining was done according to the manufacturer's protocol (Boehringer Mannheim, Indianapolis, Ind.) and then the histology slides were counterstained with methyl green. DNA was isolated from cells for analysis of internucleosomal DNA laddering followed by agarose gel electrophoresis and ethidium bromide staining.
Nude mouse xenograft model. Female NCr nude mice were purchased from Taconic, Germantown, N.Y., and were generally 20-24 grams when used. Mice were kept in autoclaved filter-top microisolator cages with autoclaved water and sterile food ad lib. The cages were maintained in an isolator unit providing filtered air (Lab Products, Inc., Maywood, N.J.). Tumor cells were grown and harvested as described above. NCr nude mice were injected intradermally with 5×10^6 tumor cells. In some experiments, treatment was initiated on the day of tumor cell implantation. […] Mice were treated IP daily for 5 days per week.
H23 tumor cells were implanted intradermally in nude mice. When the tumors reached approximately 100 mm^3, daily IP treatment with PG490-88 was initiated. […] The data in FIG. 3 represents the measurement of H23 tumor volume on day 14 after the initiation of treatment. Nude mice bearing xenografts of H23 human tumor cells were treated daily as shown. The data represent the means and the standard errors of the means of the tumor volumes as percent of the day 0 tumor volumes for each animal measured day 3, 6, 10 and 14 days after the initiation of treatment. There were 5 mice per group.

CCc1c2c(nc3ccc(OC(=O)N4CCC(N5CCCCC5)CC4)cc13)-c1cc3c(c(=O)n1C2)COC(=O)[C@]3(O)CC [CPT-11, irinotecan, reference compound]
Apoptotic Cells (%) (HT1080 cells; CPT-11 (10 µM) alone, (10 μM) in combination with PG490 5 ng/ml): 5%
Apoptotic Cells (%) (HT1080 cells; PG490 5 ng/ml, CPT-11 (5 µM) alone, (5 μM) in combination): 0%
TV Mean Day 4 (HT1080 tumor cells): 157
TV Mean Day 7 (HT1080 tumor cells): 209
TV Mean Day 10 (HT1080 tumor cells): 268
TV Mean Day 14 (HT1080 tumor cells): 495
TV Mean Day 0 (HT1080 tumor cells; baseline): 107

CCC1=C[C@@H]2CN(C1)Cc1c([nH]c3ccccc13)[C@@](C(=O)OC)(c1cc3c(cc1OC)N(C)[C@H]1[C@@](O)(C(=O)OC)[C@H](OC(C)=O)[C@]4(CC)C=CCN5CC[C@]31[C@@H]54)C2 [Navelbine, vinorelbine, reference compound]
increase in tumor volume from day 0 by day 14 ([1]; PG490-88 0.25 mg/kg i.p. 5 days per week for 2 weeks, Navelbine 10 mg/kg i.v. days 0 and 7): 343%
Day 0 Tumor Volume (mm^3) Mean ([1]; baseline at grouping, before treatment): 109 mm^3

CC(=O)O[C@H]1C(=O)[C@@]2(C)[C@H]([C@H](OC(=O)c3ccccc3)[C@]3(O)C[C@H](OC(=O)[C@H](O)[C@@H](NC(=O)c4ccccc4)c4ccccc4)C(C)=C1C3(C)C)[C@]1(OC(C)=O)CO[C@@H]1C[C@@H]2O [taxol, reference compound]
fold more resistant than the MES-SA parent cell line (Dx5 cells): 1000 fold
tumor volume as % of the vehicle control (H23 human tumor cells): 42%
